Laboratory results taken from patent US20180289655A1, “Methods and Compositions for the Intravenous Administration of Fumarates for the Treatment of Neurological Diseases” (Biogen MA Inc., priority 2015, published 2018).
Counter-ions that a name gives are not always drawn.

Legend:
[1] = system: malonate-induced striatal lesion in rats; test: Malonate-induced striatal lesion volume (cytochrome oxidase histochemistry), oral DMF; type: in vivo, Sprague-Dawley rats
Experimental: Two separate experiments were conducted and are reported here.
Rats were anesthetized under Bupivacaine (2 mg/kg), Brevital (50 mg/kg, i.p.) and isoflurane anesthesia, placed in a stereotaxic frame and prepared for intrastriatal injection. A single injection of malonate was injected at a single site in the left striatum corresponding to stereotaxic coordinates at AP: […] from bregma; Lateral: 2.8 mm from midline; DV: −5.5 mm from surface of the skull at bregma. Malonate (in saline) was injected at a dose of 2.0 μmols in 2.0 μl over 4 minutes using a syringe pump. The injection needle was left in place for an additional 1.0 min following the infusion and was withdrawn slowly to minimize reflux of the infusate up the needle tract. Rats were kept warm on a heating pad until waking from anesthesia (Green and Greenamyre, 1995).
Three (Experiment 1) or four (Experiment 2) days after the malonate injection and 30 min after the last dose, all animals were sacrificed by CO2, and their brains were quickly removed and stored in 20% sucrose in PBS for at least 1 hour, then transfer them to 30% sucrose in PBS overnight. On next day, all brains were embedded in OCT and stored in −80° C. The first experiment included three treatment groups: vehicle, 30 mg/kg and 100 mg/kg, and the second experiment included four treatment groups: vehicle, 50 mg/kg, 75 mg/kg and 100 mg/kg.
Incubation medium consisted of 200 mg cytochrome C and 200 mg of 3, 3′-Diaminobenzidine tetrahydrochloride (DAB) in 500 ml of 0.1 M phosphate buffer, pH 7.4. Slides were incubated for 90 minutes at 37° C. and wash twice with PBS (2-5 min.), then removed to 4% neutral, buffered, paraformaldehyde for 20 minutes. Sections were rinsed twice with PBS (2-5 min.), then twice with distilled water (2-5 min.), dehydrated, cleared in xylene, and coverslipped.
The lesion area on each section was quantified using Open-Lab Image Analysis System. Sections were taken throughout the entire striatum and a total of twenty 25 μm sections were analyzed for each rat. Area measurements were summed and multiplied by intersectional distance (200 μm) to determine the lesion volume for each subject.
Data for lesion volume was analyzed by one way analysis of variance (ANOVA) followed by a Tukey's test to assess differences between the treatment and vehicle groups.

[2] = MMF exposure in plasma and tissues after DMF PO/IV or MMF IV (LC-MS/MS); type: in vivo, C57BL/6 mice
Experimental: Aliquots (25 μL) of either plasma or tissue homogenate samples were extracted by protein precipitation with acetonitrile containing 4C13-MMF as the internal standard. For tissue samples, aliquots of homogenization solution (plasma with 12.5 mg/mL of NaF) were added to the tissue samples. The tissue samples were homogenized at 6.5 m/s for 60 seconds on a Fast Prep Tissue Homogenizer prior to protein precipitation. Concentrations of MMF in plasma, brain, jejunum and kidney samples were determined using qualified LC-MS/MS assays in the respective matrices. Data collections and integrations were accomplished using an API 5500 triple quadrupole mass spectrometer with a turbo ion spray interface (AB Sciex, Foster City, Calif.), and Analyst software (version 1.6.1). The peak area ratios of MMF relative to its internal standard were used to construct a standard curve using a quadratic regression with a 1/x^2 weighting. The lower limits of quantitation (LLOQ) were 1 ng/mL for the three tissue assays and 10 ng/mL for the plasma assay, respectively. The performances of the assays were monitored by the precision and accuracy of the standards and quality control samples.
MMF exposure levels were evaluated 10 minutes and 2 hours after dosing, while pharmacodynamic transcriptional responses were analyzed at 2 hours post-dose.
At the 10-minute time point, 4 animals from each group were sacrificed, with plasma and tissues (brain, jejunum and kidney) collected to determine MMF exposure. Two hours after dosing, the remaining 4 animals were sacrificed, and plasma and tissues were collected. Tissue samples from the 2-hour time point were divided, with half of each sample used for MMF exposure analysis, and half for RNA extraction and qRT-PCR to evaluate the expression of Nrf2 target genes.
MMF exposure levels were evaluated 10 minutes and 2 hours after dosing, while transcriptional pharmacodynamic responses were analyzed at 2 and 6 hours post-dose. A complete blood count (CBC) with differential panel was performed at 10 minutes, 2 hours, and 6 hours post-dose.
Ten minutes after dosing, 4 animals from each group were sacrificed, and plasma and tissues (brain, kidney, jejunum and spleen) were collected to quantify MMF exposure levels, as well as whole blood to perform CBC. Two hours post-dose, another 4 animals from each group were sacrificed, and plasma, whole blood, and tissues were collected. Tissue samples from the 2-hour time point were split, with half of each sample used for MMF exposure analysis, and half for RNA extraction/qRT-PCR to evaluate the expression of Nrf2 target genes. Six hours after dosing, the last 4 animals from each group were sacrificed, and whole blood and tissues were collected.

[3] = Tail histopathology after 5 days of once daily DMF IV tail vein dosing; type: in vivo, Sprague-Dawley rats; conditions: 5 days of repeated once daily tail vein injections

Compound: COC(=O)/C=C/C(=O)OC [DMF, dimethyl fumarate]
- Reduction of malonate induced lesion volume ([1]; Experiment 1, DMF 100 mg/kg oral daily, n=7 per group): 55%
- Reduction of malonate-induced lesion volume ([1]; Experiment 2, DMF 75 mg/kg oral daily): 44%
- Reduction of malonate-induced lesion volume ([1]; Experiment 2, DMF 100 mg/kg oral daily): 61%
- Reduction of malonate-induced lesion volume ([1]; both experiments, DMF 100 mg/kg oral daily): at least 55%
- MMF level in plasma ([2]; Study 1, IV DMF, 2 hours): no detectable MMF in plasma
- MMF level in any tissue ([2]; Study 1, PO or IV DMF, 2 hours): no detectable MMF in any tissue
- MMF level in plasma or any tissues ([2]; Study 2, 2 hours, DMF 30 mg/kg or MMF 27.08 mg/kg IV): no detectable MMF in plasma or in any tissues
- MMF levels in kidney, jejunum and spleen, DMF versus MMF ([2]; Study 2, IV, 10 minutes): no significant differences were noted in MMF levels
- Histopathology findings in the tail [3]: no treatment-related histopathology findings in the tail
